{
  "source": "patent US12257246B2",
  "about": "“Composition of 2,4,6-trifluoro-n-[6-(1-methyl-piperidin-4-carbonyl)-pyridin-2-yl[-benzamide” (CoLucid Pharmaceuticals, Inc., priority 2009, dated 2025)",
  "key": {"[1]": {"test": "Oral pharmacokinetics (solution and tablet), Study 1 and Study 2", "format": "in vivo, human", "experimental": "Plasma samples were analyzed for Compound I using a validated liquid chromatography with tandem mass spectrometric detection (LC/MS/MS) method. Relative bioavailability of tablet and solution formulations for AUCt, AUC∞, and Cmax were assessed. A linear mixed effects model was fitted to the log-transformed PK parameters (AUCt, AUC∞, and Cmax). Included in the model were treatment, period, and sequence as fixed factors and subjects nested within sequences as a random factor. For the relative bioavailability analysis, the tablet formulation was the test and the solution formulation was the reference. 90% confidence intervals and ratios for the relative mean in-transformed AUCt, AUC∞, and Cmax of the test to reference formulation were calculated."}, "[2]": {"system": "healthy male and female subjects", "test": "Oral safety and tolerability, Study 1 and Study 2", "format": "in vivo, human", "set-up": "Subjects with Nausea: dose or concentration left out as unconfirmed"}, "[3]": {"settings": "Study 2 Part 1, 200 mg tablet (N = 28)"}, "[4]": {"settings": "Study 2 Part 1, 200 mg tablet (N = 29)"}, "[5]": {"settings": "Study 2 Part 2, 50 mg tablet (N = 28)"}, "[6]": {"settings": "Study 2 Part 2, 400 mg tablet (N = 28)"}},
  "note": "Entries after “also recorded” stand apart in the source; their conditions may differ.",
  "data": [
    {"smiles": "CN1CCC(C(=O)c2cccc(NC(=O)c3c(F)cc(F)cc3F)n2)CC1", "note": "[Compound I, 2,4,6-trifluoro-N-[6-(1-methyl-piperidin-4-ylcarbonyl)-pyridin-2-yl]-benzamide]", "values": [
      {"measurement": "Tmax", "setting": "[1]; both sexes, human, plasma, 50 to 400 mg tablet formulation, oral, read-out: Median tmax", "result": "1.5 to 2.5", "unit": "h"},
      {"measurement": "oral bioavailability", "setting": "[1]; human, in vivo, po", "result": "orally bioavailable"},
      {"measurement": "bioavailability", "setting": "[1]; male, human, plasma, 200 mg oral dose, read-out: relative bioavailability of the tablet to the solution", "result": 100, "unit": "%"},
      {"measurement": "dose linearity / proportionality of oral pharmacokinetics", "setting": "[1]; oral 25 to 400 mg, males and females", "result": "dose linearity; also recorded: dose proportionality"},
      {"measurement": "oral dose achieving plasma levels previously associated with efficacy by the i.v. route", "setting": "[1]; solution and tablet", "result": "≥ 50", "unit": "mg"},
      {"measurement": "Subjects with Blurred vision", "setting": "[2]; [3]", "result": 0, "unit": "n"},
      {"measurement": "Subjects with Feeling hot", "setting": "[2]; [3]", "result": 0, "unit": "n"},
      {"measurement": "Subjects with Palpitations", "setting": "[2]; [3]", "result": 0, "unit": "n"},
      {"measurement": "Subjects with Blurred vision", "setting": "[2]; [4]", "result": 0, "unit": "n"},
      {"measurement": "Subjects with Diarrhea", "setting": "[2]; [4]", "result": 0, "unit": "n"},
      {"measurement": "Subjects with Feeling hot", "setting": "[2]; [4]", "result": 0, "unit": "n"},
      {"measurement": "Subjects with Headache", "setting": "[2]; [4]", "result": 0, "unit": "n"},
      {"measurement": "Subjects with Palpitations", "setting": "[2]; [4]", "result": 0, "unit": "n"},
      {"measurement": "Subjects with Blurred vision", "setting": "[2]; [5]", "result": 0, "unit": "n"},
      {"measurement": "Subjects with Diarrhea", "setting": "[2]; [5]", "result": 0, "unit": "n"},
      {"measurement": "Subjects with Feeling hot", "setting": "[2]; [5]", "result": 0, "unit": "n"},
      {"measurement": "Subjects with Headache", "setting": "[2]; [5]", "result": 0, "unit": "n"},
      {"measurement": "Subjects with Diarrhea", "setting": "[2]; [6]", "result": 0, "unit": "n"},
      {"measurement": "Subjects with Palpitations", "setting": "[2]; [6]", "result": 0, "unit": "n"},
      {"measurement": "Subjects with Nausea", "setting": "[2]; Study 2 Part 2, tablet (N = 28)", "result": 0, "unit": "n"},
      {"measurement": "fatigue, females", "setting": "[2]; after the 400 mg oral dose", "result": 50, "unit": "%"},
      {"measurement": "fatigue, males", "setting": "[2]; after the 400 mg oral dose", "result": 21, "unit": "%"},
      {"measurement": "tolerability", "setting": "[2]; all oral doses of solution and tablet", "result": "well tolerated"},
      {"measurement": "tolerability", "setting": "[2]; doses above 400 mg administered orally", "result": "not well tolerated"}
    ]}
  ]
}
